Assay results as given in ChEMBL document CHEMBL1201862, “PubChem BioAssay data set” (2004).
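Test compounds were applied to cells in 96-well plates for 48 hours at 5 doses. GI50 is the concentration that inhibits growth by half.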 Active and inactive are the calls of the source. No stated cut-off is given here; in the data, active = GI50 up to about 1.1 µM and inactive = higher.

Tests used:
Test in all cases: NCI tumour cell line growth inhibition, 48 h
[1] = system: OVCAR-3
[2] = system: A498
[3] = system: RXF 393
[4] = system: HL-60
[5] = system: SF-295
[6] = system: NCI-H460
[7] = system: OVCAR-4
[8] = system: LOX IMVI
[9] = system: HOP-92
[10] = system: RPMI-8226
[11] = system: SK-OV-3
[12] = system: T47D
[13] = system: SW-620
[14] = system: UACC-257
[15] = system: SK-MEL-5
[16] = system: MDA-N
[17] = system: NCI-H522
[18] = system: BT-549
[19] = system: M14
[20] = system: HCC 2998

Measured: GI50

COc1nc2c(c(=O)n1C)N[C@H]1[C@H](OC(C)=O)[C@@H](OC(C)=O)CO[C@H]1N2
inactive: [1] > 100 µM | [2] > 100 µM | [3] > 100 µM | [4] > 100 µM | [5] > 100 µM | [6] > 100 µM | [7] > 100 µM | [8] > 100 µM | [9] > 100 µM | [10] > 100 µM | [11] > 100 µM | [12] > 100 µM | [13] > 100 µM | [14] > 100 µM | [15] > 100 µM | [16] > 100 µM | [17] > 100 µM | [18] > 100 µM | [19] > 100 µM

COc1ccc2c(c1)[C@@]13CCCC[C@H]1[C@@H](C2)N(C)CC3=O
inactive: [1] 17.4 µM | [3] 15.3 µM | [4] 8.04 µM | [5] 64.9 µM | [6] 20.8 µM | [7] 16.1 µM | [8] 16.9 µM | [9] 13.6 µM | [10] 25.6 µM | [11] 16 µM | [12] 17.5 µM | [14] 16.5 µM | [15] 22.6 µM | [16] 15.3 µM | [17] 18.3 µM | [18] 17.4 µM | [20] 16.8 µM | [19] 16.1 µM

COc1cc2oc(-c3ccc(O)cc3)cc(=O)c2c(OC)c1O
inactive: [1] 80.9 µM | [3] 29 µM | [4] 21.2 µM | [5] 62.5 µM | [6] 45.7 µM | [7] > 100 µM | [8] 60.5 µM | [9] 27.9 µM | [10] 89.9 µM | [11] 30.5 µM | [12] 6.41 µM | [13] > 100 µM | [14] > 100 µM | [15] 49.4 µM | [16] > 100 µM | [17] 29.8 µM | [18] 67.9 µM | [20] 96.8 µM | [19] > 100 µM

C[N+](C)(C)CC(=O)N/N=C/c1ccncc1
inactive: [1] > 100 µM | [2] > 100 µM | [3] > 100 µM | [4] 65.6 µM | [5] > 100 µM | [6] > 100 µM | [7] > 100 µM | [8] > 100 µM | [9] > 100 µM | [10] > 100 µM | [11] > 100 µM | [12] > 100 µM | [13] > 100 µM | [14] > 100 µM | [15] > 100 µM | [16] > 100 µM | [17] > 100 µM | [18] > 100 µM | [19] > 100 µM

COc1c(-c2nc3ccc(N4CCN(C)CC4)nc3[nH]2)cc(OC)c2c1nc(COC(C)=O)n2C
inactive: [1] > 100 µM | [2] > 100 µM | [3] 19 µM | [5] > 100 µM | [7] 89.9 µM | [8] > 100 µM | [9] > 100 µM | [11] > 100 µM | [12] > 100 µM | [14] 45.3 µM | [15] > 100 µM | [16] > 100 µM | [17] > 100 µM | [18] > 100 µM | [19] > 100 µM

CCOC(=O)C1(CC(=O)O)CCCC1=O (stereo not given)
inactive: [1] > 100 µM | [2] > 100 µM | [3] > 100 µM | [4] > 100 µM | [5] > 100 µM | [6] > 100 µM | [7] > 100 µM | [8] > 100 µM | [9] > 100 µM | [10] > 100 µM | [11] > 100 µM | [12] > 100 µM | [13] > 100 µM | [14] > 100 µM | [15] > 100 µM | [16] > 100 µM | [17] > 100 µM | [18] > 100 µM | [19] > 100 µM

CC(C)Nc1[nH]c(C(=O)c2ccccc2)c(N)c1C(=S)Nc1ccccc1
inactive: [1] > 100 µM | [2] 77.6 µM | [4] > 100 µM | [5] > 100 µM | [6] 57 µM | [7] 71.9 µM | [8] 23.2 µM | [9] > 100 µM | [11] > 100 µM | [12] 69.8 µM | [13] 47 µM | [14] 22.9 µM | [15] 28.9 µM | [16] 40.4 µM | [17] 63.8 µM | [18] > 100 µM | [20] 21.8 µM | [19] 23.2 µM

OC[C@H](O)[C@@H](OCc1ccccc1)[C@H](NCc1ccccc1)c1cccs1
inactive: [1] > 100 µM | [2] > 100 µM | [4] > 100 µM | [5] > 100 µM | [6] 85.7 µM | [7] > 100 µM | [8] > 100 µM | [9] > 100 µM | [10] 92 µM | [11] > 100 µM | [12] > 100 µM | [13] > 100 µM | [14] > 100 µM | [15] > 100 µM | [16] > 100 µM | [17] > 100 µM | [18] > 100 µM | [19] > 100 µM

O=C(O)c1cccc(S(=O)(=O)NN2C(=O)CSC2c2ccccc2Cl)c1 (stereo not given)
inactive: [1] > 100 µM | [3] > 100 µM | [4] > 100 µM | [5] > 100 µM | [6] > 100 µM | [8] > 100 µM | [9] > 100 µM | [10] 81.3 µM | [11] > 100 µM | [12] > 100 µM | [13] > 100 µM | [14] > 100 µM | [15] > 100 µM | [16] > 100 µM | [17] > 100 µM | [18] > 100 µM | [20] > 100 µM | [19] > 100 µM

CC12CCC(C(=O)n3c1nc1ccccc13)C(C)(C)O2 (stereo not given)
inactive: [1] > 100 µM | [3] > 100 µM | [4] > 100 µM | [5] > 100 µM | [7] > 100 µM | [8] > 100 µM | [9] > 100 µM | [10] > 100 µM | [11] > 100 µM | [12] > 100 µM | [13] > 100 µM | [14] > 100 µM | [15] 49 µM | [16] > 100 µM | [17] 47.6 µM | [18] > 100 µM | [20] > 100 µM | [19] > 100 µM

O=C(c1ccccc1Cl)n1oc2ccccc2c1=O
inactive: [1] > 100 µM | [2] > 100 µM | [3] 68.7 µM | [4] 18 µM | [5] > 100 µM | [6] > 100 µM | [7] > 100 µM | [8] 72.3 µM | [9] 25.2 µM | [10] 28.1 µM | [11] > 100 µM | [12] > 100 µM | [13] 57 µM | [14] 86.7 µM | [15] 82.4 µM | [16] > 100 µM | [17] 13.8 µM | [18] 84.5 µM | [19] > 100 µM
